“Also recorded” adds a separate entry of the source. Where two headings read alike, the source gives them in different places.
Legend:
VDR mRNA = settings: placental carcinoma cell lines; Pospechova et al. 2009; cited from earlier work
VDRE containing genes = assay: Expression of VDRE-containing genes after treatment in vitro; type: cell-based, human
Experimental: FIGS. 6A-6C show expression levels of VDR Response Element (VDRE)-containing genes in primary breast cancer and normal breast tissue. […] Assays were performed in triplicate on a total of 8 breast cancers and 3 normal organoid preparations. […] Means and standard deviations are shown. Significant differences between normal and cancer are indicated (* p<0.05; ** p<0.01). […] The bars represent the fold induction of VDR downstream gene targets (CYP3A4[24/25OH]-white, CYP27B1[1OH]-grey, and C/EBP-hatched) over untreated control (horizontal line=1.0). Means and standard deviations of triplicate experiments are shown (* p<0.05; ** p<0.01).

[1] = tested on: breast cancer cell lines (HS578T, 21PT, MCF7, and T47D) and the immortalized normal breast epithelial cell line HBL100; settings: 96 hours, Calcitriol 1.5 μM, AZA 10 μM, alone or combined, five breast cell lines, vs vehicle control
Experimental: Cell viability was measured by MTT assay.
(§1) Human breast cell lines were obtained from American Type Culture Collection (Rockville, Md.) and propagated as described 17. For pharmacological assays, 1.0×10^6 cells were seeded in 25 cm^2 tissue culture flasks.
Cell viability was measured using the Cell Titer 96 AQ-One Solution Cell Proliferation Assay kit from Promega Corporation (Madison, Wis.). Formazan absorbance was read at 490 nm in a 96-well plate reader.

VDR variants = settings: after treatment; for levels of V1 and V2 VDR variants (active transcripts): all the breast cell lines
From the text: The V1d primers, spanning exon 1d and the junction of exon 1c and exon 2, were designed to recognize the transcript variants v1d, V1d′ and v1d″ (FIG. 1). In order to detect all of these variants, the nonspecific V6 primers, spanning exon 3 and exon 4, were used.
The PCR products were separated on 2% agarose gels, scanned in a Gel Doc Imager (BioRad, Philadelphia, Pa.), and quantified using Image Quant software (BioRad, Philadelphia, Pa.).

VDR = assay: Quantitative Real-Time PCR of total VDR expression in breast cell lines; settings: 96 hours, V primer set
Experimental: as §1
PCR was then performed for 40 cycles using gene-specific primers. To determine total VDR levels, pre-mixed “Assay on Demand” primer-probe sets for VDR (Hs01045843_m1) and GAPDH (Hs99999905_m1) and the GeneAmp® Fast PCR Master Mix were purchased from Applied Biosystems (Foster City, Calif.) and cDNA was amplified following the manufacturer's instructions in the ABI PRISM 7900HT instrument.

VDR promoter = settings: 96 hours, all breast cell lines
Experimental: To determine whether the VDR gene promoter was hypermethylated in breast cancer, bisulfite sequencing was performed in the region 790 bp upstream to 380 bp downstream of the VDR transcription start site after treatment of cells in the presence or absence of AZA for ninety six hours (see FIG. 3).
PCR products were separated electrophoretically and isolated using a PCR purification kit (Qiagen, Valencia, Calif.). DNA was sequenced using the M13 Reverse Primer with an Applied Biosystems automated fluorescent sequencer according to the manufacturer's instructions. Percent DNA methylation was determined using the ratio of cytidine to thymidine traces at CpG dinucleotides.

Compound	VDR mRNA expression (VDR mRNA)	expression of VDRE containing genes (VDRE containing genes)	cell viability / growth inhibition [1]	levels of V1 and V2 VDR variants (active transcripts) (VDR variants)	levels of V1 and V2 VDR variants (active transcripts) (VDR variants; listed as 5′ dAZA)	V1d and V1d′ VDR variants, response to demethylation (VDR variants; breast cell lines)	overall expression level of VDR (total VDR transcripts) (VDR)	methylation of the CpG islands in the VDR promoter (VDR promoter)	methylation of the CpG islands in the VDR promoter (VDR promoter; listed as 5′ dAZA)	cell viability / growth inhibition ([1]; listed as VTD)
5′ deoxy-azacytidine	re-expression	concurrent increase	restoration of sensitivity	significantly increased; also recorded: induced the re-expression	restored	less responsive	parallel increase	induced demethylation	demethylated	–
C=C1/C(=C\C=C2/CCC[C@]3(C)[C@@H]([C@H](C)CCCC(C)(C)O)CC[C@@H]23)C[C@@H](O)C[C@@H]1O [Calcitriol, 1,25-dihydroxyvitamin D3]	–	–	minimal effects; also recorded: insensitivity	–	–	–	–	–	–	ineffective
